From US8030344B2, “Inhibitors of histone deacetylase” (MethylGene Inc., priority 2007, dated 2011)
pIC50: −log10 of the molar value.

How the values were obtained:
HCT116 cells = assay: MTT assay on HCT116 cells; type: cell-based; conditions: Homo sapiens, HCT-116; 72 hours incubation; concentration reducing cell numbers to 50% of solvent treated cells
Method: (§1) HCT116 cells (2000/well) are plated into 96-well tissue culture plates one day before compound treatment. Representative compounds at various concentrations were added to the cells. The cells are incubated for 72 hours at 37° C. in 5% CO2 incubator. MTT (3-[4,5-dimethylthiazol-2-yl]-2,5 diphenyl tetrazolium bromide, Sigma) is added at a final concentration of 0.5 mg/ml and incubated with the cells for 4 hours before one volume of solubilization buffer (50% N,N-dimethylformamide, 20% SDS, pH 4.7) is added onto the cultured cells. After overnight incubation, solubilized dye is quantified by calorimetric reading at 570 nM using a reference at 630 nM. OD values are converted to cell numbers according to a standard growth curve of the relevant cell line. The concentration which reduces cell numbers to 50% of that of solvent treated cells is determined as MTT IC50. A similar assay is performed on HMEC cells.

HDAC-1 = HDAC-1 (Homo sapiens, UniProt Q13547); assay: Inhibition of histone deacetylase enzymatic (HDAC-1) activity, Boc-Lys(Ac)-AMC fluorescence assay; type: biochemical
Method: Inhibition of Histone Deacetylase Enzymatic (HDAC-1) Activity
(§2) The following protocol is used to assay the compounds of the invention. In the assay, the buffer used is 25 mM HEPES, pH 8.0, 137 mM NaCl, 2.7 mM KCl, 1 mM MgCl2 and the substrate is Boc-Lys(Ac)-AMC in a 50 mM stock solution in DMSO. The enzyme stock solution is 4.08 μg/mL in buffer.
(§3) The compounds are pre-incubated (2 μl in DMSO diluted to 13 μl in buffer for transfer to assay plate) with enzyme (20 μl of 4.08 μg/ml) for 10 minutes at room temperature (35 μl pre-incubation volume). The mixture is pre-incubated for 5 minutes at room temperature. The reaction is started by bringing the temperature to 37° C. and adding 15 μl substrate. Total reaction volume is 50 μl. The reaction is stopped after 20 minutes by addition of 50 μl developer, prepared as directed by Biomol (Fluor-de-Lys developer, Cat. # KI-105). A plate is incubated in the dark for 10 minutes at room temperature before reading (λEx=360 nm, λEm=470 nm, Cutoff filter at 435 nm). Similar assays are performed to measure HDAC-2 inhibitory activity

HMEC cells = assay: MTT assay on HMEC cells; type: cell-based; conditions: Homo sapiens; similar MTT assay on HMEC cells
Method: as §1

HDAC-2 = HDAC-2 (Homo sapiens, UniProt Q92769); assay: Similar assay measuring HDAC-2 inhibitory activity; type: biochemical
Method: as §2, §3

HDAC-1, sequence (Q13547 whole entry): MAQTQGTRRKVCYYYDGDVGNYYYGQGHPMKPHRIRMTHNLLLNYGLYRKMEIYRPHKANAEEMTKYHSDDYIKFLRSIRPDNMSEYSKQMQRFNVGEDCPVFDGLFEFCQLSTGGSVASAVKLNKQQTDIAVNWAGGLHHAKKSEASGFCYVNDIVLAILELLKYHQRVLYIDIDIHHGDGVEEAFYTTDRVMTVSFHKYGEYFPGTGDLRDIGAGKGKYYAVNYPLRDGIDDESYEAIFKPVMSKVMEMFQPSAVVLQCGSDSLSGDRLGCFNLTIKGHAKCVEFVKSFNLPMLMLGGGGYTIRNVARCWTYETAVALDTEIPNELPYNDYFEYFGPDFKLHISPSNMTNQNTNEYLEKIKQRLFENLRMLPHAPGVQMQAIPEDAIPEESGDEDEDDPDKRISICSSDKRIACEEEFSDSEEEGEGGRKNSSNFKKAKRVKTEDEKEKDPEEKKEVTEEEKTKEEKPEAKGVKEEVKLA
HDAC-2, sequence (Q92769 whole entry): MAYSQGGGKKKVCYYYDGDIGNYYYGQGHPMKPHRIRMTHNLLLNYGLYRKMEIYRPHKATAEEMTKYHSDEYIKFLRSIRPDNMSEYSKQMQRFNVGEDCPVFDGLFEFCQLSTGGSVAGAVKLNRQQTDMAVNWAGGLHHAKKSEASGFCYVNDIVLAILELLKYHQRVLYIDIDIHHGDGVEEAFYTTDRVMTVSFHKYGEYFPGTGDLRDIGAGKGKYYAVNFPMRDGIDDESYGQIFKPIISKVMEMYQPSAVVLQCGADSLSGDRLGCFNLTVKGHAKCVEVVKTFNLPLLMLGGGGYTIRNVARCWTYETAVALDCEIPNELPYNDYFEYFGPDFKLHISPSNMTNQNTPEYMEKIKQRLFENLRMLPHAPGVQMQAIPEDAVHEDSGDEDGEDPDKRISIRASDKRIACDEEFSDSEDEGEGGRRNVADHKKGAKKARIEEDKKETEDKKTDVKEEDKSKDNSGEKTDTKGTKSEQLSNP

SMILES | pIC50 (HCT116 cells) | pIC50 (HDAC-1) | pIC50 (HDAC-2) | pIC50 (HMEC cells)
CN(C)CC(=O)N[C@H]1CCN(c2ccc(C(=O)Nc3ccccc3N)cc2)C1 [Compound 141, (S)-N-(2-Aminophenyl)-4-(3-(2-(dimethylamino)acetamido)pyrrolidin-1-yl)benzamide] | ≥ 5.30 | ≥ 6.30 | ≥ 5.30 | < 4.30
Nc1ccccc1NC(=O)c1ccc(N2CC[C@H](NC(=O)OCc3ccncc3)C2)cc1 [Compound 142, (S)-Pyridin-4-ylmethyl 1-(4-(2-aminophenylcarbamoyl)phenyl)pyrrolidin-3-yl carbamate] | ≥ 6.00 | ≥ 7.00 | ≥ 6.30 | ≥ 4.30
Nc1ccccc1NC(=O)c1ccc(N2CC[C@H](NC(=O)OCc3ccccn3)C2)cc1 [Compound 143, (S)-Pyridin-2-ylmethyl 1-(4-(2-aminophenylcarbamoyl)phenyl)pyrrolidin-3-yl carbamate] | ≥ 6.00 | ≥ 6.30 | ≥ 6.30 | ≥ 4.30
Nc1ccccc1NC(=O)c1ccc(N2CC[C@H](NC(=O)OCc3ccoc3)C2)cc1 [Compound 145, (S)-Furan-3-ylmethyl 1-(4-(2-aminophenylcarbamoyl)phenyl) pyrrolidin-3-yl carbamate] | ≥ 6.30 | ≥ 7.00 | ≥ 6.30 | ≥ 4.30
COC(=O)N[C@H]1CCN(c2ccc(C(=O)Nc3ccccc3N)cn2)C1 [Compound 155, (S)-Methyl 1-(5-(2-aminophenylcarbamoyl)pyridin-2-yl)pyrrolidin-3-ylcarbamate] | ≥ 5.30 | ≥ 6.30 | ≥ 5.30 | ≥ 4.30
CCOC(=O)N[C@H]1CCN(c2ccc(C(=O)Nc3ccccc3N)cn2)C1 [Compound 156, (S)-Ethyl 1-(5-(2-aminophenylcarbamoyl)pyridin-2-yl)pyrrolidin-3-ylcarbamate] | ≥ 6.00 | ≥ 6.30 | ≥ 6.00 | ≥ 4.30
CCNC(=O)O[C@H]1CCN(c2ccc(C(=O)Nc3ccccc3N)cc2)C1 [Compound 162, (S)-1-(4-(2-Aminophenylcarbamoyl)phenyl)pyrrolidin-3-yl ethyl carbamate] | ≥ 5.30 | ≥ 6.30 | ≥ 5.30 | < 4.30
Nc1ccccc1NC(=O)c1ccc(N2CC[C@H](OC(=S)NCCN3CCOCC3)C2)cc1 [Compound 163, (S)-O-1-(4-(2-Aminophenylcarbamoyl)phenyl)pyrrolidin-3-yl 2-morpholinoethylcarbamothioate] | ≥ 5.30 | ≥ 6.30 | ≥ 5.30 | ≥ 4.30

Now from value to compound, other results behind:

pIC50 (HCT116 cells) | pIC50 (HDAC-1) | pIC50 (HDAC-2) | SMILES | pIC50 (HMEC cells)
≥ 6.00 | ≥ 6.30 | ≥ 6.30 | COc1cc(CN(C(=O)OCc2ccccc2)[C@H]2CCN(c3ccc(C(=O)Nc4ccccc4N)cc3)C2)cc(OC)c1OC [Compound 197, (S)-benzyl 1-(4-(2-aminophenylcarbamoyl)phenyl)-pyrrolidin-3-yl(3,4,5-trimethoxybenzyl)carbamate] | < 4.30
≥ 6.00 | ≥ 6.30 | ≥ 6.30 | CC(C)OC(=O)N[C@H]1CCN(c2ccc(C(=O)Nc3ccccc3N)cc2)C1 [Compound 198, (S)-isopropyl 1-(4-(2-aminophenylcarbamoyl)phenyl)-pyrrolidin-3-ylcarbamate] | ≥ 4.30
≥ 6.30 | ≥ 7.00 | ≥ 6.30 | Nc1ccccc1NC(=O)c1ccc(N2CC[C@H](NC(=O)OCC3CC3)C2)cc1 [Compound 199, (S)-cyclopropylmethyl 1-(4-(2-aminophenylcarbamoyl)phenyl)-pyrrolidin-3-ylcarbamate] | ≥ 4.30
≥ 6.30 | ≥ 6.30 | ≥ 6.30 | Nc1ccccc1NC(=O)c1ccc(N2CC[C@H](NC(=O)OC3CCOCC3)C2)cc1 [Compound 200, (S)-tetrahydro-2H-pyran-4-yl 1-(4-(2-aminophenylcarbamoyl)phenyl)-pyrrolidin-3-ylcarbamate] | < 4.30
